Measurements taken from ChEMBL document CHEMBL1146571, “Mycalosides B-I, eight new spermostatic steroid oligoglycosides from the sponge Mycale laxissima” (J Nat Prod, 2003).
Values after ≈ are worked out from the molar mass of the structure shown.

Assay: Spermatostatic activity against Strongylocentrotus nudus sperm assessed as inhibition of egg fertilization preincubated 15 mins before artificial insemination
Type: functional, cell-based, Mesocentrotus nudus

Structure (SMILES)	EC50 [µg/mL]
CC(C)CCC[C@@H](CO)[C@H]1CC(=O)[C@H]2[C@@H]3CC=C4[C@@H](O)[C@@H](O[C@@H]5O[C@H](CO)[C@@H](O[C@@H]6O[C@H](CO)[C@H](O)[C@H](O)[C@H]6O)[C@H](O[C@@H]6OC[C@@H](O)[C@@H](O)[C@@H]6O[C@H]6O[C@H](CO)[C@H](O)[C@H](O)[C@H]6O)[C@H]5O)CC[C@]4(C)[C@H]3CC[C@]12C [MYCALOSIDE G]	3.2 (≈ 3.04 µM)
CC(C)[C@H](C)/C=C/[C@@H](CO)[C@H]1C[C@H](O)[C@H]2[C@@H]3CC=C4[C@@H](O)[C@@H](O[C@@H]5O[C@H](CO)[C@@H](O[C@@H]6O[C@H](CO)[C@H](O)[C@H](O)[C@H]6O)[C@H](O[C@@H]6OC[C@@H](O)[C@@H](O)[C@@H]6O[C@H]6O[C@H](CO)[C@H](O)[C@H](O)[C@H]6O)[C@H]5O)CC[C@]4(C)[C@H]3CC[C@@]21C [MYCALOSIDE A]	3.2 (≈ 3 µM)
